The term MIC denotes the lowest concentration that inhibits growth of the organism.

In brackets after ≈: the same amount, converted by molar mass.

Common to all, as to assay: ≥ marks a high value that may be exact or a test limit, other limits are often not marked, values filed in µg/mL are converted to µM
The subject of assay [1] is Escherichia coli ATCC 25922.
Assay [2] deals with Staphylococcus aureus ATCC 25923.
The subject of assay [3] is Pseudomonas aeruginosa ATCC 27853.

Turning to `CC[C@H](C)[C@H](NC(=O)[C@H](CCCN=C(N)N)NC(=O)[C@H](CCCCN)NC(=O)[C@H](CCSC)NC(=O)[C@H](CC(C)C)NC(=O)CN)C(=O)N[C@@H](CCCCN)C(=O)N[C@H](C(=O)N[C@@H](CCSC)C(=O)N[C@@H](CC(C)C)C(N)=O)[C@@H](C)O` [GLMKRIKTML], the MIC in assay [1] is above 200 µM.
For `CC(C)C[C@H](NC(=O)[C@H](CC(C)C)NC(=O)[C@H](CC(C)C)NC(=O)[C@@H]1CCCN1C(=O)[C@H](CC(C)C)NC(=O)[C@@H](N)Cc1ccccc1)C(=O)N[C@@H](C)C(=O)NCC(=O)N[C@@H](CC(C)C)C(=O)N1CCC[C@H]1C(=O)N[C@@H](CCCCN)C(=O)N[C@@H](CC(C)C)C(=O)N[C@@H](CC(C)C)C(=O)N[C@H]1CSSC[C@@H](C(=O)O)NC(=O)[C@H](CCCCN)NC(=O)[C@H](CCCCN)NC(=O)[C@H](Cc2ccccc2)NC(=O)[C@H](Cc2ccccc2)NC(=O)[C@H](CC(C)C)NC1=O` [FLPLLLAGLPKLLCLFFKKC], the MIC in assay [1] and in assay [2] was 15 µM (≈ 34.1 µg/mL) in each case.
With `CC[C@H](C)[C@H](NC(=O)[C@H](CCCN=C(N)N)NC(=O)[C@H](CCCCN)NC(=O)[C@H](CC(C)C)NC(=O)[C@H](CC(C)C)NC(=O)CN)C(=O)N[C@@H](CCCCN)C(=O)N[C@H](C(=O)N[C@@H](CC(C)C)C(=O)N[C@@H](CC(C)C)C(N)=O)C(C)C` [GLLKRIKVLL], the MIC in assay [1] and in assay [2] was 19.1 µM (≈ 22 µg/mL) throughout.
Consider `CC(C)C[C@H](NC(=O)[C@H](Cc1ccccc1)NC(=O)[C@@H]1CCCN1C(=O)[C@H](Cc1c[nH]c2ccccc12)NC(=O)[C@H](Cc1c[nH]c2ccccc12)NC(=O)[C@H](Cc1ccc(O)cc1)NC(=O)[C@@H]1CCCN1C(=O)[C@H](Cc1ccccc1)NC(=O)[C@H](CCCN=C(N)N)NC(=O)[C@H](CCCN=C(N)N)NC(=O)[C@@H](N)C(C)C)C(=O)N[C@@H](CCCN=C(N)N)C(=O)N[C@@H](CCCN=C(N)N)C(N)=O` [VRRFPYWWPFLRR], for which the MIC in assay [1] was found to be 16 µM (≈ 30.1 µg/mL).
Consider `CC[C@H](C)[C@H](NC(=O)[C@H](CCC(=O)O)NC(=O)[C@H](C)NC(=O)[C@@H](NC(=O)[C@H](CCCCN)NC(=O)[C@H](CCCCN)NC(=O)CN)[C@@H](C)O)C(=O)N[C@@H](CCC(=O)O)C(=O)N[C@@H](CCCCN)C(=O)O` [GKKTAEIEK], for which the minimal inhibitory concentration (MIC) in assay [1] turned out to be 2490 µM (≈ 2500 µg/mL); in assay [2], 1250 µM (≈ 1250 µg/mL).
`NC(=O)[C@H](CCCN=C(N)N)NC(=O)[C@H](Cc1c[nH]c2ccccc12)NC(=O)[C@H](Cc1c[nH]c2ccccc12)NC(=O)[C@@H](N)CCCN=C(N)N` [RWWR]: the MIC in assay [1] is above 285 µM; in assay [2], 142 µM (≈ 99.9 µg/mL).
On to `CC[C@H](C)[C@H](NC(=O)[C@H](CCCCN)NC(=O)[C@H](CC(C)C)NC(=O)[C@H](CC(C)C)NC(=O)CN)C(=O)N[C@H](C(=O)N[C@@H](CCCCN)C(=O)N[C@H](C(=O)N[C@@H](CC(C)C)C(=O)N[C@@H](CC(C)C)C(N)=O)[C@@H](C)O)[C@@H](C)CC` [GLLKIIKTLL], for which the MIC in assay [1] and in assay [2] was 1.8 µM (≈ 2 µg/mL) each time.
In the case of `CC(C)[C@H](NC(=O)[C@H](CC(=O)O)NC(=O)[C@H](CO)NC(=O)[C@H](CCCCN)NC(=O)CNC(=O)[C@H](CO)NC(=O)[C@H](CO)NC(=O)[C@H](Cc1cnc[nH]1)NC(=O)[C@@H](N)CCC(N)=O)C(=O)N[C@@H](CCCN=C(N)N)C(=O)N[C@@H](CCCN=C(N)N)C(=O)N[C@@H](Cc1c[nH]c2ccccc12)C(N)=O` [QHSSGKSDVRRW], the MIC in assay [3], in assay [1] and in assay [2] was above 100 µM throughout.
`CC[C@H](C)[C@H](NC(=O)[C@H](CCCN=C(N)N)NC(=O)[C@H](CCCCN)NC(=O)[C@H](CC(C)C)NC(=O)[C@H](CC(C)C)NC(=O)CN)C(=O)N[C@@H](CCCCN)C(=O)N[C@@H](Cc1c[nH]c2ccccc12)C(=O)N[C@@H](CC(C)C)C(=O)N[C@@H](CC(C)C)C(N)=O` [GLLKRIKWLL]: the results for the MIC in assay [1] and in assay [2] were 1.61 µM (≈ 2 µg/mL) and 3.23 µM (≈ 4 µg/mL), respectively.
Consider `CC[C@H](C)[C@H](NC(=O)[C@H](Cc1ccccc1)NC(=O)CN)C(=O)N[C@@H](CO)C(=O)N[C@H](C(=O)N[C@H](C(=O)N[C@@H](CCCCN)C(=O)N[C@@H](CC(N)=O)C(=O)N[C@@H](CC(C)C)C(=O)N[C@@H](C)C(=O)N[C@H](C(=O)N[C@@H](CC(N)=O)C(=O)N[C@H](C(=O)N[C@@H](C)C(=O)NCC(=O)N[C@H](C(=O)N[C@H](C(=O)N[C@H](C(=O)N[C@@H](CC(=O)O)C(=O)N[C@H](C(=O)N[C@H](C(=O)N[C@@H](CCCCN)C(=O)N[C@H]1CSSC[C@@H](C(=O)O)NC(=O)CNC(=O)CNC(=O)[C@H]([C@@H](C)O)NC(=O)[C@H](C(C)C)NC(=O)[C@H](CCCCN)NC1=O)[C@@H](C)CC)[C@@H](C)O)[C@@H](C)CC)C(C)C)[C@@H](C)O)C(C)C)[C@@H](C)O)C(C)C)[C@@H](C)O` [GFISTVKNLATNVAGTVIDTIKCKVTGGC], for which the MIC in assay [1] was determined as 110 µM (≈ 320 µg/mL).
For `CC[C@H](C)[C@H](NC(=O)[C@@H](N)Cc1ccc(O)cc1)C(=O)N[C@@H](CCCCN)C(=O)N[C@@H](CC(C)C)C(=O)N[C@@H](CC(C)C)C(=O)N[C@@H](CCCCN)C(=O)N[C@@H](CCC(=O)O)C(N)=O` [YIKLLKE], the MIC in assay [3] and in assay [1] was above 100 µM each time.
As to `NC(=O)[C@H](Cc1c[nH]c2ccccc12)NC(=O)[C@H](CCCN=C(N)N)NC(=O)[C@H](CCCN=C(N)N)NC(=O)[C@H](CCCN=C(N)N)NC(=O)[C@H](Cc1c[nH]c2ccccc12)NC(=O)[C@@H](N)Cc1c[nH]c2ccccc12` [WWRRRW], the MIC amounted to 23.9 µM (≈ 25 µg/mL) in assay [1] and 9.57 µM (≈ 9.99 µg/mL) in assay [2].
Regarding `CC[C@H](C)[C@H](NC(=O)[C@H](CCCN=C(N)N)NC(=O)[C@H](CCCCN)NC(=O)[C@H](CC(C)C)NC(=O)[C@H](CC(C)C)NC(=O)[C@@H](N)CCCCN)C(=O)N[C@@H](CCCCN)C(=O)N[C@@H](CCCCN)C(=O)N[C@@H](CC(C)C)C(=O)N[C@@H](CC(C)C)C(N)=O` [KLLKRIKKLL], the MIC in assay [1] stood at 29.5 µM (≈ 37 µg/mL); in assay [2], 22.4 µM (≈ 28 µg/mL).
As for `CC(C)[C@@H]1NC(=O)CNC(=O)[C@H](CCCN=C(N)N)NC(=O)[C@H](CCCN=C(N)N)NC(=O)[C@@H]2CSSC[C@H](NC1=O)C(=O)N[C@@H](CCCN=C(N)N)C(=O)N[C@H]1CSSC[C@H](NC(=O)[C@H](CCCN=C(N)N)NC(=O)[C@@H](NC(=O)[C@@H](NC(=O)CN)C(C)C)CSSC[C@@H](C(=O)N[C@@H](CCCN=C(N)N)C(=O)N[C@@H](CCCN=C(N)N)C(=O)O)NC(=O)[C@H](C(C)C)NC1=O)C(=O)N[C@@H](C(C)C)C(=O)N2` [GVCRCVCRRGVCRCVCRR], the MIC in assay [1] is 32 µM (≈ 66.5 µg/mL); in assay [2] it was above 32 µM.
In turn, `CC(C)C[C@H](NC(=O)[C@H](CCC(N)=O)NC(=O)[C@H](CCCCN)NC(=O)[C@H](CCCN=C(N)N)NC(=O)[C@@H]1CCCN1C(=O)[C@H](C)N)C(=O)N[C@@H](CCCCN)C(=O)N[C@@H](Cc1c[nH]c2ccccc12)C(=O)O` [APRKQLKW] gave an MIC in assay [1] of 7.8 µM (≈ 8 µg/mL).
Consider `CSCC[C@H](NC(=O)[C@H](Cc1c[nH]c2ccccc12)NC(=O)[C@H](CC(C)C)NC(=O)[C@H](C)N)C(=O)N[C@H](C(=O)N[C@@H](CC(C)C)C(=O)N[C@@H](CC(C)C)C(=O)N[C@@H](CCCCN)C(=O)N[C@@H](CCCCN)C(=O)N[C@H](C(=O)N[C@@H](CC(C)C)C(=O)N[C@@H](CCCCN)C(=O)N[C@@H](C)C(N)=O)C(C)C)[C@@H](C)O` [ALWMTLLKKVLKA], for which the MIC in assay [1] was 25 µM (≈ 37.9 µg/mL); in assay [2], 6 µM (≈ 9.08 µg/mL).
On to `CSCC[C@H](NC(=O)[C@H](CCCN=C(N)N)NC(=O)[C@H](Cc1c[nH]c2ccccc12)NC(=O)[C@H](C)NC(=O)[C@H](Cc1c[nH]c2ccccc12)NC(=O)[C@H](CCCN=C(N)N)NC(=O)[C@H](CCCN=C(N)N)NC(=O)[C@H](C)NC(=O)[C@H](CCCCN)NC(=O)[C@@H](N)Cc1ccccc1)C(=O)N[C@@H](CCCCN)C(=O)O` [FKARRWAWRMK], for which the figures for the MIC in assay [3], in assay [1] and in assay [2] were 130 µM (≈ 200 µg/mL), 32.6 µM (≈ 50 µg/mL) and 32.6 µM (≈ 50 µg/mL), respectively.
`CC[C@H](C)[C@H](NC(=O)CN)C(=O)N[C@@H](CCSC)C(=O)N[C@@H](CC(=O)O)C(=O)N[C@H](C(=O)N[C@H](C(=O)N[C@@H](CCCCN)C(=O)N[C@@H](CC(N)=O)C(=O)N[C@@H](C)C(=O)N[C@@H](C)C(=O)N[C@@H](CCCCN)C(=O)N[C@@H](CC(=O)O)C(=O)N[C@@H](CC(C)C)C(=O)N[C@@H](C)C(=O)NCC(=O)N[C@@H](CCC(N)=O)C(=O)N[C@@H](CC(C)C)C(=O)N[C@@H](CC(C)C)C(=O)N[C@@H](CC(=O)O)C(=O)N[C@@H](CCCCN)C(=O)N[C@@H](CC(C)C)C(=O)N[C@@H](CCCCN)C(=O)N[C@H]1CSSC[C@@H](C(=O)O)NC(=O)CNC(=O)[C@H]([C@@H](C)O)NC(=O)[C@H]([C@@H](C)CC)NC(=O)[C@H](CCCN=C(N)N)NC1=O)C(C)C)[C@@H](C)O` [GIMDTVKNAAKDLAGQLLDKLKCRITGC]: the MIC in assay [1] was 3 µM (≈ 8.92 µg/mL).
As for `NC(=O)[C@H](CCCN=C(N)N)NC(=O)[C@H](Cc1c[nH]c2ccccc12)NC(=O)[C@H](Cc1c[nH]c2ccccc12)NC(=O)[C@H](CCCN=C(N)N)NC(=O)[C@H](Cc1c[nH]c2ccccc12)NC(=O)[C@H](Cc1c[nH]c2ccccc12)NC(=O)[C@@H](N)CCCN=C(N)N` [RWWRWWR], the MIC in assay [3] was determined as 6.09 µM (≈ 7.49 µg/mL); in assay [1], 8.12 µM (≈ 9.99 µg/mL); in assay [2] it was 2.03 µM (≈ 2.5 µg/mL).
For the molecule `CC[C@H](C)[C@H](NC(=O)[C@H](Cc1ccc(O)cc1)NC(=O)[C@H](CCC(N)=O)NC(=O)[C@H](CC(C)C)NC(=O)[C@H](C)NC(=O)[C@H](CCCCN)NC(=O)[C@H](CCCCN)NC(=O)[C@H](CCSC)NC(=O)[C@H](CCCCN)NC(=O)[C@@H](N)CCCCN)C(=O)N[C@@H](CCCCN)C(=O)N[C@@H](CC(C)C)C(N)=O` [KKMKKALQYIKL], the MIC in assay [3] and in assay [1] was above 100 µM each time.
In assay [3], `CC(C)C[C@H](NC(=O)[C@H](CC(C)C)NC(=O)[C@H](CCCN=C(N)N)NC(=O)[C@H](CC(C)C)NC(=O)[C@H](CC(C)C)NC(=O)[C@H](CCCN=C(N)N)NC(=O)[C@H](CCCN=C(N)N)NC(=O)[C@H](CC(C)C)NC(=O)[C@H](CC(C)C)NC(=O)[C@H](CCCN=C(N)N)NC(=O)[C@H](CC(C)C)NC(=O)[C@H](CC(C)C)NC(=O)[C@H](CCCN=C(N)N)NC(=O)[C@H](CC(C)C)NC(=O)[C@H](CCCN=C(N)N)NC(=O)[C@H](CC(C)C)NC(=O)[C@H](CCCN=C(N)N)NC(=O)[C@H](CCCN=C(N)N)NC(=O)[C@@H](N)CC(C)C)C(=O)O` [LRRLRLRLLRLLRRLLRLL] registered an MIC above 128 µM.

For the origin of these results see DBAASP.
